Source: PMC12056667 (Chemical Science, 2025)

Key:
Tet(X4) = Tet(X4) (Escherichia coli, UniProt A0A3T0V9Y5); experiment: biochemical; conditions: 20 μM tigecycline, 50 nM Tet(X4), 100 μM NADPH, 5 mM MgCl2, 1 μM FAD, 100 mM TAPS pH 8.5; read-out: IC50, UPLC assay
Method in brief: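 Endpoint turnover assay: 100 nM Tet(X4) with […] and 10 mM MgCl2 in 100 mM TAPS pH 8.5, preincubated with inhibitor 15 min at 30 °C, then 40 μM tigecycline plus 200 μM NADPH added […] for 20 min at 30 °C.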

[1] = system: Salmonella enterica T-2a – tet(X4); experiment: microbe, parasite or virus in culture; assay type: cell-based; conditions: for MIC: Salmonella enterica, read-out: Tet(X) Inhibitor MIC; for Combination (Antibiotic/Inhibitor) MICs: inhibitor / Combination (Antibiotic/Inhibitor) MICs: antibiotic: lowest FICI
Method: (§1) MIC tests and checkerboard assays were performed in U-bottom, 96-well microtiter plates using a modified broth microdilution protocol following CLSI guidelines. Cation-adjusted Mueller-Hinton Broth (CAMHB) was prepared fresh on the day of testing.[74] In brief, assays were set up in a total volume of 100 μL per well and titrations comprised seven 2-fold dilutions of inhibitors and ten 2-fold dilutions of tigecycline in CAMHB. Bacterial colonies were selected from an overnight culture on MHA plates (supplemented with 0.2%w/vL-arabinose for E. coli TOP10 containing pBAD-TOPO-Tet(X4)) and were suspended in 0.9% saline solution to achieve a 0.5 McFarland standard. A 100 μL aliquot of this suspension was then diluted into 9.9 mL of CAMHB to yield approximately 1.5 × 10^6 cfu mL^−1. 50 μL of the suspension was then added to each well of a microtiter plates. Plates were incubated at 37 °C for 18 h. At least 2 replicates were conducted for each combination. E. coli TOP10 + pBAD-TOPO-Tet(X4) cells were grown in the absence and presence of 0.2%w/vL-arabinose. Analysis of the MIC and checkerboard results were carried out by visual inspection of growth, with and without resazurin dye, an oxidation–reduction indicator.[75] As a measure of synergy, fractional inhibitory concentration index (FICI) was calculated as FICA + FICB, where FICA and FICB are the MICcombination/MICalone for each agent, respectively.[76] Results were interpreted as follows: synergistic (<0.5), indifferent (1.0–4.0) or antagonistic (>4.0).[64] In cases where the MIC exceeded or was below the measured range, the borderline value was taken to calculate the FIC index.

[2] = system: Acinetobacter spp. NT3-1 – tet(X3); experiment: microbe, parasite or virus in culture; assay type: cell-based; conditions: for MIC: Acinetobacter, read-out: Tet(X) Inhibitor MIC, alone; for Combination (Antibiotic/Inhibitor) MICs: inhibitor / Combination (Antibiotic/Inhibitor) MICs: antibiotic: lowest FICI
Method: as §1

[3] = inhibitor in combination with tigecycline
[4] = tigecycline in combination with the inhibitor

## Cc1c2c(c(O)c3c(O)cccc13)C(=O)[C@]1(O)C(=O)C(C(N)=O)=C(O)[C@@H](N(C)C)[C@@H]1C2 [Anhydrotetracycline]
Tet(X4)
  IC50: 2.6 ± 0.3 µM
[1]
  MIC: 32 µg/mL
[1]; [3]
  Combination (Antibiotic/Inhibitor) MICs: inhibitor: 16 µg/mL
[1]; [4]
  Combination (Antibiotic/Inhibitor) MICs: antibiotic: 8 µg/mL
[1]; with tigecycline
  FICI: 0.8
  Outcome: indifferent (indifferent (0.5-4.0))
[2]; Acinetobacter spp. NT3-1
  MIC: 2 µg/mL
[2]; [3]
  Combination (Antibiotic/Inhibitor) MICs: inhibitor: 0.25 µg/mL
[2]; [4]
  Combination (Antibiotic/Inhibitor) MICs: antibiotic: 0.5 µg/mL
[2]; with tigecycline
  FICI: 0.3
  Outcome: synergy (synergy (< 0.5))

## O=C(c1ccc(OCCN2CCCCC2)cc1)c1c(-c2ccc(O)cc2)sc2cc(O)ccc12 [Raloxifene]
Tet(X4)
  IC50: 8.3 ± 2.1 µM
[1]
  MIC: > 128 µg/mL
[1]; [3]
  Combination (Antibiotic/Inhibitor) MICs: inhibitor: 128 µg/mL
[1]; [4]
  Combination (Antibiotic/Inhibitor) MICs: antibiotic: 16 µg/mL
[1]; with tigecycline
  FICI: 1.5
  Outcome: indifferent (indifferent (0.5-4.0))
[2]; Acinetobacter spp. NT3-1
  MIC: 4 µg/mL
[2]; [3]
  Combination (Antibiotic/Inhibitor) MICs: inhibitor: 2 µg/mL
[2]; [4]
  Combination (Antibiotic/Inhibitor) MICs: antibiotic: 2 µg/mL
[2]; with tigecycline
  FICI: 1
  Outcome: indifferent (indifferent (0.5-4.0))

## [H]/N=C(/NCCCCC)N/N=C/c1c[nH]c2ccc(OC)cc12 [Tegaserod]
Tet(X4)
  IC50: 25.9 ± 2.4 µM
[1]
  MIC: 32 µg/mL
[1]; doxycycline with tegaserod
  Combination (Antibiotic/Inhibitor) MICs: antibiotic: 8 µg/mL
[1]; [3]
  Combination (Antibiotic/Inhibitor) MICs: inhibitor: 8 µg/mL
[1]; tegaserod with doxycycline
  Combination (Antibiotic/Inhibitor) MICs: inhibitor: 16 µg/mL
[1]; tegaserod with tetracycline
  Combination (Antibiotic/Inhibitor) MICs: inhibitor: 16 µg/mL
[1]; tetracycline with tegaserod
  Combination (Antibiotic/Inhibitor) MICs: antibiotic: 32 µg/mL
[1]; [4]
  Combination (Antibiotic/Inhibitor) MICs: antibiotic: 8 µg/mL
[1]; with doxycycline
  FICI: 0.8
  Outcome: indifferent (indifferent (0.5-4.0))
[1]; with tetracycline
  FICI: 0.8
  Outcome: indifferent (indifferent (0.5-4.0))
[1]; with tigecycline
  FICI: 0.5
  Outcome: indifferent (indifferent (0.5-4.0))
[2]; Acinetobacter spp. NT3-1
  MIC: 4 µg/mL
[2]; alone, Acinetobacter spp. NT3-1
  Tet(X) inhibitor MIC: 8 µg/mL
[2]; doxycycline with tegaserod
  Combination (Antibiotic/Inhibitor) MICs: antibiotic: 4 µg/mL
[2]; [3]
  Combination (Antibiotic/Inhibitor) MICs: inhibitor: 2 µg/mL
[2]; tegaserod with doxycycline
  Combination (Antibiotic/Inhibitor) MICs: inhibitor: 4 µg/mL
[2]; tegaserod with tetracycline
  Combination (Antibiotic/Inhibitor) MICs: inhibitor: 4 µg/mL
[2]; tetracycline with tegaserod
  Combination (Antibiotic/Inhibitor) MICs: antibiotic: 16 µg/mL
[2]; [4]
  Combination (Antibiotic/Inhibitor) MICs: antibiotic: 0.5 µg/mL
[2]; with doxycycline
  FICI: 1.0
  Outcome: indifferent (indifferent (0.5-4.0))
[2]; with tetracycline
  FICI: 0.8
  Outcome: indifferent (indifferent (0.5-4.0))
[2]; with tigecycline
  FICI: 0.6
  Outcome: indifferent (indifferent (0.5-4.0))

## CN1CCN(CCCN2c3ccccc3Sc3ccc(C(F)(F)F)cc32)CC1 [Trifluoperazine]
Tet(X4)
  IC50: 83.8 ± 21.4 µM
[1]
  MIC: > 128 µg/mL
[1]; [3]
  Combination (Antibiotic/Inhibitor) MICs: inhibitor: 64 µg/mL
[1]; [4]
  Combination (Antibiotic/Inhibitor) MICs: antibiotic: 16 µg/mL
[1]; with tigecycline
  FICI: 1
  Outcome: indifferent (indifferent (0.5-4.0))
[2]; Acinetobacter spp. NT3-1
  MIC: 16 µg/mL
[2]; [3]
  Combination (Antibiotic/Inhibitor) MICs: inhibitor: 16 µg/mL
[2]; [4]
  Combination (Antibiotic/Inhibitor) MICs: antibiotic: 4 µg/mL
[2]; with tigecycline
  FICI: 2
  Outcome: indifferent (indifferent (0.5-4.0))
